Test results reported in the kinase profiling compilation of Christmann-Franck et al. (2016).

Experiments:
Test in all cases: KINOMEscan competition binding
Conditions in all cases: compound 10.0 µM
EPHA1 (human) = EPHA1 (human) (UniProt P21709)
HCK (human) = HCK (human) (UniProt P08631)
FLT4 (human) = FLT4 (human) (UniProt P35916)
PIM3 (human) = PIM3 (human) (UniProt Q86V86)
TNIK (human) = TNIK (human) (UniProt Q9UKE5)
PAK7 (human) = PAK7 (human) (UniProt Q9P286)
DCLK3 (human) = DCLK3 (human) (UniProt Q9C098)
TAOK1 (human) = TAOK1 (human) (UniProt Q7L7X3)
PTK2B (human) = PTK2B (human) (UniProt Q14289)
STK17B (human) = STK17B (human) (UniProt O94768)
MAPK10 (human) = MAPK10 (human) (UniProt P53779)
MAPK12 (human) = MAPK12 (human) (UniProt P53778)
TNK2 (human) = TNK2 (human) (UniProt Q07912)
PRKAA1 (human) = PRKAA1 (human) (UniProt Q13131)
ZAP70 (human) = ZAP70 (human) (UniProt P43403)
SRMS (human) = SRMS (human) (UniProt Q9H3Y6)
CHEK1 (human) = CHEK1 (human) (UniProt O14757)
CAMK4 (human) = CAMK4 (human) (UniProt Q16566)
LTK (human) = LTK (human) (UniProt P29376)
PTK6 (human) = PTK6 (human) (UniProt Q13882)
MAP4K4 (human) = MAP4K4 (human) (UniProt O95819)
MAPK11 (human) = MAPK11 (human) (UniProt Q15759)
MST1R (human) = MST1R (human) (UniProt Q04912)
AURKA (human) = AURKA (human) (UniProt O14965)
IGF1R (human) = IGF1R (human) (UniProt P08069)
INSRR (human) = INSRR (human) (UniProt P14616)
CAMK2D (human) = CAMK2D (human) (UniProt Q13557)
MLTK (human) = MLTK (human) (UniProt Q9NYL2)
MINK1 (human) = MINK1 (human) (UniProt Q8N4C8)
CDC2L2 (human) = CDC2L2 (human) (UniProt Q9UQ88)
STK32C (human) = STK32C (human) (UniProt Q86UX6)
MAPK1 (human) = MAPK1 (human) (UniProt P28482)
SRPK2 (human) = SRPK2 (human) (UniProt P78362)
PAK3 (human) = PAK3 (human) (UniProt O75914)
PHKG2 (human) = PHKG2 (human) (UniProt P15735)
MAPK8 (human) = MAPK8 (human) (UniProt P45983)
CSNK1A1L (human) = CSNK1A1L (human) (UniProt Q8N752)
MYLK2 (human) = MYLK2 (human) (UniProt Q9H1R3)
CHUK (human) = CHUK (human) (UniProt O15111)
ADCK4 (human) = ADCK4 (human) (UniProt Q96D53)

PHKG2 (human), sequence (P15735 whole entry, looked up): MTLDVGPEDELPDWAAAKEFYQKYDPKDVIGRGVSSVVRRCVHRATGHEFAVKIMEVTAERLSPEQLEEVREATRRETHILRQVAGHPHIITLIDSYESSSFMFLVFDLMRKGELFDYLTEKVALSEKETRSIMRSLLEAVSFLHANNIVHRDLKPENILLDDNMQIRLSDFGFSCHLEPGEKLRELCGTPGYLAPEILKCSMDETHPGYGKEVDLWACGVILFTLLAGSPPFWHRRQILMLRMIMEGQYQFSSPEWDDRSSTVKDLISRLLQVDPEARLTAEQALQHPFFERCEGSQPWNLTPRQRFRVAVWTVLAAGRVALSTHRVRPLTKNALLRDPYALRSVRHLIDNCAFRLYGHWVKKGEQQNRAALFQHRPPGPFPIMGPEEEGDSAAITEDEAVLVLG
CAMK2D (human), sequence (Q13557 whole entry, looked up): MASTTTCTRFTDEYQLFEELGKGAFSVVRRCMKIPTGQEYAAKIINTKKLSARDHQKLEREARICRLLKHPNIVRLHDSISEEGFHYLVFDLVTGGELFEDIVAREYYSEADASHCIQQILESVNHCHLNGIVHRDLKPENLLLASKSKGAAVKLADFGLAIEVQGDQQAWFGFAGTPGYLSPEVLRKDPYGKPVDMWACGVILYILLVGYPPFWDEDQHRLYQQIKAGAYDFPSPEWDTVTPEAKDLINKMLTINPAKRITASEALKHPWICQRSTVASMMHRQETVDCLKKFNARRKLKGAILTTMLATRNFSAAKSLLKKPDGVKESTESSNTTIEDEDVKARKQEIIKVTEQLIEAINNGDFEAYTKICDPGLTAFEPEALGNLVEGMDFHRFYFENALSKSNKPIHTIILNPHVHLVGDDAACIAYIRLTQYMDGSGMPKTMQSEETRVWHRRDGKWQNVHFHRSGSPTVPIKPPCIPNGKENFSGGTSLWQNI
MAPK1 (human), sequence (P28482 whole entry, looked up): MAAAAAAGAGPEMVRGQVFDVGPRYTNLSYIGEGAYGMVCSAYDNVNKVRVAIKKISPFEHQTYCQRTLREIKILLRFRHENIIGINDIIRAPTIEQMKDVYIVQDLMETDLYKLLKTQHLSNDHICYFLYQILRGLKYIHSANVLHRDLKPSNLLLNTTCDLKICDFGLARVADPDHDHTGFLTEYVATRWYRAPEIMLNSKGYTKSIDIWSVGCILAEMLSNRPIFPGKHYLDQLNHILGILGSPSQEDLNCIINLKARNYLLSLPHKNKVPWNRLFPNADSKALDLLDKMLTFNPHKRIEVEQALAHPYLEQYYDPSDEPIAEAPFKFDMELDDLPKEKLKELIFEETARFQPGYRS
IGF1R (human), sequence (P08069 whole entry, looked up): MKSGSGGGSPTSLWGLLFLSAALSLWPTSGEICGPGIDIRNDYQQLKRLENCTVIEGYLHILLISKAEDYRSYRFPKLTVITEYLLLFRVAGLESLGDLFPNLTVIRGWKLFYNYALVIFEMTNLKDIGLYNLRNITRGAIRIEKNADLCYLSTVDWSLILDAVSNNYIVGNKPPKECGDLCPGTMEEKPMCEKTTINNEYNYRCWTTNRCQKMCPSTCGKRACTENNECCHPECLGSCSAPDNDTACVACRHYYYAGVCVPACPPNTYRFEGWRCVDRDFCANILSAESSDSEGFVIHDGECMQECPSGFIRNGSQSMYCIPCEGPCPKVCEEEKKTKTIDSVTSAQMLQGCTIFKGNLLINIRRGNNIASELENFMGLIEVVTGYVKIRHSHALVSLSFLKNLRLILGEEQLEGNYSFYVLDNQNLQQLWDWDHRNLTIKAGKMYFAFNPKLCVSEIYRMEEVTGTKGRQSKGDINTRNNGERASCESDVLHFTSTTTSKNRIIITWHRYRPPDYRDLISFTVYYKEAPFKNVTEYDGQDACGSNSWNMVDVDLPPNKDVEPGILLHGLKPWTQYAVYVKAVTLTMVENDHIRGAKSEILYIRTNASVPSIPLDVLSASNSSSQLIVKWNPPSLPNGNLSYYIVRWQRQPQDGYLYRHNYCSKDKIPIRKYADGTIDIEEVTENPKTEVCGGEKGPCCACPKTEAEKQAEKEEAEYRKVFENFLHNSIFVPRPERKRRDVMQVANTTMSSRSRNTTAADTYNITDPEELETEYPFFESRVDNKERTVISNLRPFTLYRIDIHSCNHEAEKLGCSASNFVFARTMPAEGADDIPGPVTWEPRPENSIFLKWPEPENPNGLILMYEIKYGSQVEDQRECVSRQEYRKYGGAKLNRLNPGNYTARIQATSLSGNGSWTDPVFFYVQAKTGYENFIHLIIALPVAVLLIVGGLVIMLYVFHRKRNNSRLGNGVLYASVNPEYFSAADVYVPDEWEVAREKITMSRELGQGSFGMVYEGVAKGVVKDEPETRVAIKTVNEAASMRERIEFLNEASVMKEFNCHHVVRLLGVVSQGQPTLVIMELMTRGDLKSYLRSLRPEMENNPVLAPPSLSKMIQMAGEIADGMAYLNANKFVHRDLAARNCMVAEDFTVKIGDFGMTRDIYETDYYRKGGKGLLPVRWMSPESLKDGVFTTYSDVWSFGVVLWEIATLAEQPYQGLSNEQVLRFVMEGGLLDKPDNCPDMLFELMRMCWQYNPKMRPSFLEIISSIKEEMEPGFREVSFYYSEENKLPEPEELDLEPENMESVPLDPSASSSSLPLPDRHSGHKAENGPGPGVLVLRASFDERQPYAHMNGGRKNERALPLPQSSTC
LTK (human), sequence (P29376 whole entry, looked up): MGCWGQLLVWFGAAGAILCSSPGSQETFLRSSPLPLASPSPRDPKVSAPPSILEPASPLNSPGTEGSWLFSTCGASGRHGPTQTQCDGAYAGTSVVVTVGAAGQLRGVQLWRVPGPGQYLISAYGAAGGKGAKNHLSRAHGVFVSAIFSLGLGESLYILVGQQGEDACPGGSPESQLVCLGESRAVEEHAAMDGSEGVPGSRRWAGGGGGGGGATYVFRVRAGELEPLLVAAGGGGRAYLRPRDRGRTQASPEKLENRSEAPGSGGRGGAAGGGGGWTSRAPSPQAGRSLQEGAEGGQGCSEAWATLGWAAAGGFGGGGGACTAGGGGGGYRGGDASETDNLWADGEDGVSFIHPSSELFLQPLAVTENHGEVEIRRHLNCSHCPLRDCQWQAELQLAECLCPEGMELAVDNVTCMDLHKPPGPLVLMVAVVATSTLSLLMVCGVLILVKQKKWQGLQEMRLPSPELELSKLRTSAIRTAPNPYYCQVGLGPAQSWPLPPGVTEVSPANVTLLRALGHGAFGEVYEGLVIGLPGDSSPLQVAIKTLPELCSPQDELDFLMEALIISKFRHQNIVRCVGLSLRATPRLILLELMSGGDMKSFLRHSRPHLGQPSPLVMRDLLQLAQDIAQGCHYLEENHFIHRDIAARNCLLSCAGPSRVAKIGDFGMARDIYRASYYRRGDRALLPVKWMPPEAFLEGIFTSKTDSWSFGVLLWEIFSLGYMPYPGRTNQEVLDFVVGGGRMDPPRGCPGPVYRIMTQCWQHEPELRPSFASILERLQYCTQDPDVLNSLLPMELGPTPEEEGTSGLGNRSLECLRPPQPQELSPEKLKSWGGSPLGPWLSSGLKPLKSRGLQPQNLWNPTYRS
CHUK (human), sequence (O15111 whole entry, looked up): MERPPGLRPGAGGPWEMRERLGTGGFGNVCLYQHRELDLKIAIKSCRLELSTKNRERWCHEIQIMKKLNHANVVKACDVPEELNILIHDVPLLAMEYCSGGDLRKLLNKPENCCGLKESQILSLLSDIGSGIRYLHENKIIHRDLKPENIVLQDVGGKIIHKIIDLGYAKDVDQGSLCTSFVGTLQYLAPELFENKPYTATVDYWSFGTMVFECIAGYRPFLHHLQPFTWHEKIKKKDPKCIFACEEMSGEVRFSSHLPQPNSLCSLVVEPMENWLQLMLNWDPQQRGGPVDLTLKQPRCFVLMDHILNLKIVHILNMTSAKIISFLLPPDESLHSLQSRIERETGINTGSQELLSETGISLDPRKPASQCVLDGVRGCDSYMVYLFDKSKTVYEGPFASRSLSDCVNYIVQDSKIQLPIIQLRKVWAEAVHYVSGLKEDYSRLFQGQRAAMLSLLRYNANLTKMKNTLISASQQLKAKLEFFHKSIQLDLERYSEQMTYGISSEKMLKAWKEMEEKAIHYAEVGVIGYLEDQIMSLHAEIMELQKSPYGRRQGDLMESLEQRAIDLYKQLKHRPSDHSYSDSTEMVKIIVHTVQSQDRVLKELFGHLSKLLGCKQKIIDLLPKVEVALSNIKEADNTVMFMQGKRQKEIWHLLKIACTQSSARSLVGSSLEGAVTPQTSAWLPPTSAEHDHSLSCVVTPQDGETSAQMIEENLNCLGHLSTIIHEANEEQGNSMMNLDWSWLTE
MAPK11 (human), sequence (Q15759 whole entry, looked up): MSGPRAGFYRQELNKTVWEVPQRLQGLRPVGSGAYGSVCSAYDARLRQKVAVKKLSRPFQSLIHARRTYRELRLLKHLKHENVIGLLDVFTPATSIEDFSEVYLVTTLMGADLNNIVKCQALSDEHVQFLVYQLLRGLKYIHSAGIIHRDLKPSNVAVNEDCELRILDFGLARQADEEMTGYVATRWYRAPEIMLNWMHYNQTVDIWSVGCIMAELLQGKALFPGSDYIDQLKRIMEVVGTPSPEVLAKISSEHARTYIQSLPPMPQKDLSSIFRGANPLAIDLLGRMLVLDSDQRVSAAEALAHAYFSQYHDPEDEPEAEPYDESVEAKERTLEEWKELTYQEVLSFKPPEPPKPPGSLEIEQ
CSNK1A1L (human), sequence (Q8N752 whole entry, looked up): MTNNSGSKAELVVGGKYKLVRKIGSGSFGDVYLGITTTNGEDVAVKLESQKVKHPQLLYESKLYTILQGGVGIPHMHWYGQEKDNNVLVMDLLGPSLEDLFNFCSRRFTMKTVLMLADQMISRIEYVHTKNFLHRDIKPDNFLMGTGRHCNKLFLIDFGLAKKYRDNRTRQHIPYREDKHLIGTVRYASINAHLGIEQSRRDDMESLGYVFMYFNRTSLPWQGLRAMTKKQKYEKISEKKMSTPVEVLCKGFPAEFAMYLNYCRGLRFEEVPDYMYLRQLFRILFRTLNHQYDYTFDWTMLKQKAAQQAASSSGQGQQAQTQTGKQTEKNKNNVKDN

| Structure (SMILES) | kinase still bound, per cent of control (EPHA1 (human)) | kinase still bound, per cent of control (HCK (human)) | kinase still bound, per cent of control (FLT4 (human)) | kinase still bound, per cent of control (PIM3 (human)) | kinase still bound, per cent of control (TNIK (human)) | kinase still bound, per cent of control (PAK7 (human)) | kinase still bound, per cent of control (DCLK3 (human)) | kinase still bound, per cent of control (TAOK1 (human)) | kinase still bound, per cent of control (PTK2B (human)) | kinase still bound, per cent of control (STK17B (human)) | kinase still bound, per cent of control (MAPK10 (human)) | kinase still bound, per cent of control (MAPK12 (human)) | kinase still bound, per cent of control (TNK2 (human)) | kinase still bound, per cent of control (PRKAA1 (human)) | kinase still bound, per cent of control (ZAP70 (human)) | kinase still bound, per cent of control (SRMS (human)) | kinase still bound, per cent of control (CHEK1 (human)) | kinase still bound, per cent of control (CAMK4 (human)) | kinase still bound, per cent of control (LTK (human)) | kinase still bound, per cent of control (PTK6 (human)) | other results |
| --- | --- | --- | --- | --- | --- | --- | --- | --- | --- | --- | --- | --- | --- | --- | --- | --- | --- | --- | --- | --- | --- |
| O=C(NOC[C@H](O)CO)c1ccc(F)c(F)c1Nc1ccc(I)cc1F | 91% | 100% | 94% | 100% | 100% | 100% | 100% | 100% | 98% | 100% | 90% | 100% | 72% | 100% | 89% | 95% | 74% | 100% | 100% | 46% | kinase still bound, per cent of control (MAP4K4 (human)): 69%; kinase still bound, per cent of control (MAPK11 (human)): 100%; kinase still bound, per cent of control (MST1R (human)): 78%; kinase still bound, per cent of control (AURKA (human)): 100%; kinase still bound, per cent of control (IGF1R (human)): 87%; kinase still bound, per cent of control (INSRR (human)): 81%; kinase still bound, per cent of control (CAMK2D (human)): 100%; kinase still bound, per cent of control (MLTK (human)): 88%; kinase still bound, per cent of control (MINK1 (human)): 94%; kinase still bound, per cent of control (CDC2L2 (human)): 100%; kinase still bound, per cent of control (STK32C (human)): 100%; kinase still bound, per cent of control (MAPK1 (human)): 100%; kinase still bound, per cent of control (SRPK2 (human)): 100%; kinase still bound, per cent of control (PAK3 (human)): 100%; kinase still bound, per cent of control (PHKG2 (human)): 93%; kinase still bound, per cent of control (MAPK8 (human)): 92%; kinase still bound, per cent of control (CSNK1A1L (human)): 80%; kinase still bound, per cent of control (MYLK2 (human)): 100%; kinase still bound, per cent of control (CHUK (human)): 100%; kinase still bound, per cent of control (ADCK4 (human)): 100% |
| O=C1Nc2ccc(I)cc2/C1=C/c1cc(Br)c(O)c(Br)c1 | 98% | 81% | 100% | 2% | 2.7% | 87% | 100% | 54% | 81% | 40% | 60% | 74% | 74% | 100% | 84% | 65% | 100% | 100% | 47% | 85% | kinase still bound, per cent of control (MAP4K4 (human)): 4.2%; kinase still bound, per cent of control (MAPK11 (human)): 88%; kinase still bound, per cent of control (MST1R (human)): 100%; kinase still bound, per cent of control (AURKA (human)): 65%; kinase still bound, per cent of control (IGF1R (human)): 97%; kinase still bound, per cent of control (INSRR (human)): 81%; kinase still bound, per cent of control (CAMK2D (human)): 41%; kinase still bound, per cent of control (MLTK (human)): 84%; kinase still bound, per cent of control (MINK1 (human)): 2.8%; kinase still bound, per cent of control (CDC2L2 (human)): 73%; kinase still bound, per cent of control (STK32C (human)): 98%; kinase still bound, per cent of control (MAPK1 (human)): 87%; kinase still bound, per cent of control (SRPK2 (human)): 87%; kinase still bound, per cent of control (PAK3 (human)): 100%; kinase still bound, per cent of control (PHKG2 (human)): 92%; kinase still bound, per cent of control (MAPK8 (human)): 86%; kinase still bound, per cent of control (CSNK1A1L (human)): 100%; kinase still bound, per cent of control (MYLK2 (human)): 85%; kinase still bound, per cent of control (CHUK (human)): 100%; kinase still bound, per cent of control (ADCK4 (human)): 65% |
| COc1cc(C(=O)NC2CCN(C)CC2)ccc1Nc1ncc2c(n1)N(C1CCCC1)CCC(=O)N2C(C)C | 100% | 100% | 0% | 100% | 100% | 100% | 100% | 100% | 100% | 100% | 100% | 100% | 100% | 100% | 100% | 100% | 100% | 100% | 100% | 100% | kinase still bound, per cent of control (MAP4K4 (human)): 100%; kinase still bound, per cent of control (MAPK11 (human)): 100%; kinase still bound, per cent of control (MST1R (human)): 100%; kinase still bound, per cent of control (AURKA (human)): 100%; kinase still bound, per cent of control (IGF1R (human)): 100%; kinase still bound, per cent of control (INSRR (human)): 100%; kinase still bound, per cent of control (CAMK2D (human)): 100%; kinase still bound, per cent of control (MLTK (human)): 100%; kinase still bound, per cent of control (MINK1 (human)): 100%; kinase still bound, per cent of control (CDC2L2 (human)): 100%; kinase still bound, per cent of control (STK32C (human)): 100%; kinase still bound, per cent of control (MAPK1 (human)): 100%; kinase still bound, per cent of control (SRPK2 (human)): 100%; kinase still bound, per cent of control (PAK3 (human)): 100%; kinase still bound, per cent of control (PHKG2 (human)): 100%; kinase still bound, per cent of control (MAPK8 (human)): 100%; kinase still bound, per cent of control (CSNK1A1L (human)): 100%; kinase still bound, per cent of control (MYLK2 (human)): 100%; kinase still bound, per cent of control (CHUK (human)): 100%; kinase still bound, per cent of control (ADCK4 (human)): 100% |
